Data from paper PMC3353862.
≈ marks a conversion by molar mass, not a printed value.

The compounds below were run on bacterial protein synthesis (aminoacylation/translation system) (assay: aminoacylation/translation (A/T) assay). Conditions: A/T assay, Table 1; read-out: IC50.
Type: biochemical

Compound	IC50 [nM]
O=c1[nH]c(-c2ccccn2)nc2c1CN(Cc1ccccc1Cl)CC2 [Compound 323219]	3000
O=c1[nH]c(-c2ccccn2)nc2c1CN(Cc1cccc(Cl)c1)CC2 [Compound 323220]	2100
CC(=O)Nc1ccc(CN2CCc3nc(-c4ccccn4)[nH]c(=O)c3C2)cc1 [Compound 323222]	> 300000
COc1cccc(CN2CCc3nc(-c4ccccn4)[nH]c(=O)c3C2)c1OC [Compound 323223]	14700
COc1cc(OC)c(OC)cc1CN1CCc2nc(-c3ccccn3)[nH]c(=O)c2C1 [Compound 323226]	8000
O=c1[nH]c(-c2ccccn2)nc2c1CN(Cc1cc(F)ccc1F)CC2 [Compound 323228]	300
O=c1[nH]c(-c2ccccn2)nc2c1CN(Cc1cc(F)cc(F)c1)CC2 [Compound 323230]	2000

What follows are compounds tested on E. faecalis (assay: Broth microdilution MIC testing). Conditions: E. faecalis.
Type: cell-based, Enterococcus faecalis

Compound	MIC E. fae [µg/mL]
O=c1[nH]c(-c2ccccn2)nc2c1CN(Cc1ccccc1Cl)CC2 [Compound 323219]	32 (≈ 90.7 µM)
O=c1[nH]c(-c2ccccn2)nc2c1CN(Cc1cccc(Cl)c1)CC2 [Compound 323220]	32 (≈ 90.7 µM)
CC(=O)Nc1ccc(CN2CCc3nc(-c4ccccn4)[nH]c(=O)c3C2)cc1 [Compound 323222]	> 128
COc1cccc(CN2CCc3nc(-c4ccccn4)[nH]c(=O)c3C2)c1OC [Compound 323223]	> 128
COc1cc(OC)c(OC)cc1CN1CCc2nc(-c3ccccn3)[nH]c(=O)c2C1 [Compound 323226]	> 128
O=c1[nH]c(-c2ccccn2)nc2c1CN(Cc1cc(F)ccc1F)CC2 [Compound 323228]	64 (≈ 181 µM)
O=c1[nH]c(-c2ccccn2)nc2c1CN(Cc1cc(F)cc(F)c1)CC2 [Compound 323230]	32 (≈ 90.3 µM)

What follows are compounds tested on M. catarrhalis (assay: Broth microdilution MIC testing). Conditions: not given.
Type: cell-based, Moraxella catarrhalis

Compound	MIC M. cat [µg/mL]
O=c1[nH]c(-c2ccccn2)nc2c1CN(Cc1ccccc1Cl)CC2 [Compound 323219]	≤0.12
O=c1[nH]c(-c2ccccn2)nc2c1CN(Cc1cccc(Cl)c1)CC2 [Compound 323220]	≤0.12
CC(=O)Nc1ccc(CN2CCc3nc(-c4ccccn4)[nH]c(=O)c3C2)cc1 [Compound 323222]	> 128
COc1cccc(CN2CCc3nc(-c4ccccn4)[nH]c(=O)c3C2)c1OC [Compound 323223]	4 (≈ 10.6 µM)
COc1cc(OC)c(OC)cc1CN1CCc2nc(-c3ccccn3)[nH]c(=O)c2C1 [Compound 323226]	64 (≈ 157 µM)
O=c1[nH]c(-c2ccccn2)nc2c1CN(Cc1cc(F)ccc1F)CC2 [Compound 323228]	0.5 (≈ 1.41 µM)
O=c1[nH]c(-c2ccccn2)nc2c1CN(Cc1cc(F)cc(F)c1)CC2 [Compound 323230]	0.5 (≈ 1.41 µM)

What follows are compounds tested on H. influenzae (assay: Broth microdilution MIC testing). Conditions: H. influenzae.
Type: cell-based, Haemophilus influenzae

Compound	MIC H. flu [µg/mL]
O=c1[nH]c(-c2ccccn2)nc2c1CN(Cc1ccccc1Cl)CC2 [Compound 323219]	4 (≈ 11.3 µM)
O=c1[nH]c(-c2ccccn2)nc2c1CN(Cc1cccc(Cl)c1)CC2 [Compound 323220]	2 (≈ 5.67 µM)
CC(=O)Nc1ccc(CN2CCc3nc(-c4ccccn4)[nH]c(=O)c3C2)cc1 [Compound 323222]	> 128
COc1cccc(CN2CCc3nc(-c4ccccn4)[nH]c(=O)c3C2)c1OC [Compound 323223]	32 (≈ 84.6 µM)
COc1cc(OC)c(OC)cc1CN1CCc2nc(-c3ccccn3)[nH]c(=O)c2C1 [Compound 323226]	> 128
O=c1[nH]c(-c2ccccn2)nc2c1CN(Cc1cc(F)ccc1F)CC2 [Compound 323228]	4 (≈ 11.3 µM)
O=c1[nH]c(-c2ccccn2)nc2c1CN(Cc1cc(F)cc(F)c1)CC2 [Compound 323230]	8 (≈ 22.6 µM)

The compounds below were run on S. pneumoniae (assay: Broth microdilution MIC testing). Conditions: S. pneumoniae.
Type: cell-based, Streptococcus pneumoniae

Compound	MIC S. pneumo [µg/mL]
O=c1[nH]c(-c2ccccn2)nc2c1CN(Cc1ccccc1Cl)CC2 [Compound 323219]	4 (≈ 11.3 µM)
O=c1[nH]c(-c2ccccn2)nc2c1CN(Cc1cccc(Cl)c1)CC2 [Compound 323220]	4 (≈ 11.3 µM)
CC(=O)Nc1ccc(CN2CCc3nc(-c4ccccn4)[nH]c(=O)c3C2)cc1 [Compound 323222]	> 128
COc1cccc(CN2CCc3nc(-c4ccccn4)[nH]c(=O)c3C2)c1OC [Compound 323223]	32 (≈ 84.6 µM)
COc1cc(OC)c(OC)cc1CN1CCc2nc(-c3ccccn3)[nH]c(=O)c2C1 [Compound 323226]	> 128
O=c1[nH]c(-c2ccccn2)nc2c1CN(Cc1cc(F)ccc1F)CC2 [Compound 323228]	8 (≈ 22.6 µM)
O=c1[nH]c(-c2ccccn2)nc2c1CN(Cc1cc(F)cc(F)c1)CC2 [Compound 323230]	8 (≈ 22.6 µM)

Each compound was assayed on S. aureus (assay: Broth microdilution MIC testing). Conditions: S. aureus.
Type: cell-based, Staphylococcus aureus

Compound	MIC S. aureus [µg/mL]
O=c1[nH]c(-c2ccccn2)nc2c1CN(Cc1ccccc1Cl)CC2 [Compound 323219]	16 (≈ 45.3 µM)
O=c1[nH]c(-c2ccccn2)nc2c1CN(Cc1cccc(Cl)c1)CC2 [Compound 323220]	16 (≈ 45.3 µM)
CC(=O)Nc1ccc(CN2CCc3nc(-c4ccccn4)[nH]c(=O)c3C2)cc1 [Compound 323222]	> 128
COc1cccc(CN2CCc3nc(-c4ccccn4)[nH]c(=O)c3C2)c1OC [Compound 323223]	> 128
COc1cc(OC)c(OC)cc1CN1CCc2nc(-c3ccccn3)[nH]c(=O)c2C1 [Compound 323226]	> 128
O=c1[nH]c(-c2ccccn2)nc2c1CN(Cc1cc(F)cc(F)c1)CC2 [Compound 323230]	32 (≈ 90.3 µM)

The compounds below were run on E. coli tolC mutants (assay: Broth microdilution MIC testing). Conditions: E. coli tolC mutants.
Type: cell-based, Escherichia coli

Compound	MIC E. coli tolC [µg/mL]
O=c1[nH]c(-c2ccccn2)nc2c1CN(Cc1ccccc1Cl)CC2 [Compound 323219]	8 (≈ 22.7 µM)
O=c1[nH]c(-c2ccccn2)nc2c1CN(Cc1cccc(Cl)c1)CC2 [Compound 323220]	8 (≈ 22.7 µM)
CC(=O)Nc1ccc(CN2CCc3nc(-c4ccccn4)[nH]c(=O)c3C2)cc1 [Compound 323222]	> 128
COc1cccc(CN2CCc3nc(-c4ccccn4)[nH]c(=O)c3C2)c1OC [Compound 323223]	128 (≈ 338 µM)
COc1cc(OC)c(OC)cc1CN1CCc2nc(-c3ccccn3)[nH]c(=O)c2C1 [Compound 323226]	> 128
O=c1[nH]c(-c2ccccn2)nc2c1CN(Cc1cc(F)ccc1F)CC2 [Compound 323228]	16 (≈ 45.2 µM)
O=c1[nH]c(-c2ccccn2)nc2c1CN(Cc1cc(F)cc(F)c1)CC2 [Compound 323230]	16 (≈ 45.2 µM)

What follows are compounds tested on E. coli modified with PMBN (assay: Broth microdilution MIC testing). Conditions: E. coli modified with PMBN.
Type: cell-based, Escherichia coli

Compound	MIC E. coli +PMBP [µg/mL]
O=c1[nH]c(-c2ccccn2)nc2c1CN(Cc1ccccc1Cl)CC2 [Compound 323219]	16 (≈ 45.3 µM)
O=c1[nH]c(-c2ccccn2)nc2c1CN(Cc1cccc(Cl)c1)CC2 [Compound 323220]	8 (≈ 22.7 µM)
CC(=O)Nc1ccc(CN2CCc3nc(-c4ccccn4)[nH]c(=O)c3C2)cc1 [Compound 323222]	> 128
COc1cccc(CN2CCc3nc(-c4ccccn4)[nH]c(=O)c3C2)c1OC [Compound 323223]	64 (≈ 169 µM)
COc1cc(OC)c(OC)cc1CN1CCc2nc(-c3ccccn3)[nH]c(=O)c2C1 [Compound 323226]	> 128
O=c1[nH]c(-c2ccccn2)nc2c1CN(Cc1cc(F)ccc1F)CC2 [Compound 323228]	16 (≈ 45.2 µM)
O=c1[nH]c(-c2ccccn2)nc2c1CN(Cc1cc(F)cc(F)c1)CC2 [Compound 323230]	16 (≈ 45.2 µM)

These compounds were tested on panel of bacteria (assay: Antibacterial activity against the panel of bacteria (MIC, overall)). Conditions: Table 2. Also: key: +: poor; ++: moderate; +++: good antibacterial activity.
Type: cell-based

Compound	MIC (antibacterial activity grade)
O=c1[nH]c(-c2ccccn2)nc2c1CN(Cc1cc(F)ccc1F)CC2 [Compound 323228]	++
